The values below come from patent US10669239B2, “Tetrahydronaphthyl urea derivative” (MOCHIDA PHARMACEUTICAL CO., LTD., priority 2017, dated 2020).

The target in the experiment is human TrkA protein (Homo sapiens (Human), UniProt P04629). Put plainly: TrkA LanthaScreen Eu Kinase Binding Assay (binding activity for human TrkA protein). Conditions: TrkA enzyme, Kinase Tracer 236, TR-FRET, 60 minutes at room temperature. On the procedure: (Pharmacological Experimental Example 1): Evaluation of Binding Activity for Human TrkA Protein
Measurement was carried out using TrkA LanthaScreen (registered trademark) Eu Kinase Binding Assay (ThermoFisher SCIENTIFIC). To a 384 well plate (Corning), 2.5 μL of the test compound having various concentrations and diluted with Kinase buffer (ThermoFisher SCIENTIFIC) and 2.5 μL of 15 nM TrkA enzyme (ThermoFisher SCIENTIFIC) were added. Moreover, 5 μL of 3 nM Eu-anti-His Tag antibody (ThermoFisher SCIENTIFIC) and 5 μL of 30 nM Kinase (registered trademark) Tracer 236 (ThermoFisher SCIENTIFIC) were added, followed by reaction at room temperature for 60 minutes. After the reaction, the fluorescence intensity of Europium (Emission wavelength 615 nm) and TR-FRET (Emission wavelength 665 nm) with an excitation wavelength of 340 nm were measured with EnVision 2100 (PerkinElmer) to calculate the fluorescence ratio as the amount of the test compound and the TrkA enzyme bonded. The inhibitory activity (IC50 value) of each test compound was calculated with the fluorescence ratio of the well to which a solvent was added instead of the test compound being 0% and the fluorescence ratio of the well without addition of the TrkA protein being 100%.
In Table 1, Compounds 1 to 62 respectively mean Compounds 1 to 62 synthesized in accordance with Examples 1 to 62 described later.
On the technique in general: In TR-FRET formats the signal depends on donor and acceptor labels being close together.

SMILES strings stand for the structures. A value given as a limit tells only on which side of the number the result lay.

Sequence of human TrkA protein (P04629 33-796): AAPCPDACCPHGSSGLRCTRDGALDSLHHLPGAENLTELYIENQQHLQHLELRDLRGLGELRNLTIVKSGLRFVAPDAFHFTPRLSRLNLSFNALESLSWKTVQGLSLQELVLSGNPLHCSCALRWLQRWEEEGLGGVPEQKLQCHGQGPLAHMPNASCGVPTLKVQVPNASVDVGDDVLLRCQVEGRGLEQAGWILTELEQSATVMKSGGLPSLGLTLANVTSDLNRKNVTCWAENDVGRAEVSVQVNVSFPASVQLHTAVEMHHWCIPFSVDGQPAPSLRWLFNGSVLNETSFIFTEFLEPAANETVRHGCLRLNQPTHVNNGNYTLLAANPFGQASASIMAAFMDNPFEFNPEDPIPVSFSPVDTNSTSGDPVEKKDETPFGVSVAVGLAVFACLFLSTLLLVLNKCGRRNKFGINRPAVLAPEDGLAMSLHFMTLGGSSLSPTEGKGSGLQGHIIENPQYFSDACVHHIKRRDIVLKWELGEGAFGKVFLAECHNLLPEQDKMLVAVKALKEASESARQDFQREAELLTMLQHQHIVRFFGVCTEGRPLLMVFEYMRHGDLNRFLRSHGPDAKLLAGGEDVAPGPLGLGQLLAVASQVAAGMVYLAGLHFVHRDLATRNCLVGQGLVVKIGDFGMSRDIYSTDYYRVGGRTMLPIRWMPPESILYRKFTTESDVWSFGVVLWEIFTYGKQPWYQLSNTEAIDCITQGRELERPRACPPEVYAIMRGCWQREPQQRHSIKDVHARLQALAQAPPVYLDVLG

Take `Cc1cc(NC(=O)N[C@@H]2c3cc(F)c(F)cc3C(C)(C)C[C@H]2O)c(-c2ccccc2)nc1-c1ccnc(CO)c1` (racemic) [Compound 56, rac-1-((1R,2R)-6,7-difluoro-2-hydroxy-4,4-dimethyl-1,2,3,4-tetrahydronaphthalen-1-yl)-3-(2′-(hydroxymethyl)-3-methyl-6-phenyl-[2,4′-bipyridin]-5-yl)urea]: the IC50 was at most 50 nM.

Usually IC50 stands for the concentration needed to halve the response being measured. A low value points to greater potency.
